Data from EP4664463A1, “COMPUTER-IMPLEMENTED METHOD FOR OLFACTORY PROPERTY PREDICTION” (Givaudan SA, priority 2024, dated 2025).
Entries after “also recorded” stand apart in the source; their conditions may differ. Where two headings read alike, the source gives them in different places.

Legend:
OR4S2 [1] = molecular target: T1, OR4S2 (Homo sapiens, UniProt Q8NH73); assay: cell-based; format: cell-based
T1 construct: expressed in transfected cells; host or cells: HEK293T stably expressing human RTP1S(V227I) and RTP2(L220R)
From the text: (§1) To create an expression plasmid, an OR coding sequence fused at the end of TM7 to the desired C-terminus sequence was synthesized by a DNA synthesis service provider (BioCat GmbH, Germany) and inserted into pcDNA3.1(+) (Invitrogen, MA, USA) downstream of the CMV promoter sequence (SEQ ID NO: 82) using BamHI and Notl restriction sites. All the synthetic OR nucleotide sequences described below in Examples 1-15 further contained at their N-terminus a nucleotide sequence encoding a signal peptide (mmLucy-FLAG-rho, SeQ ID NOs: 80, 81) and at the C-terminus the bgh terminator sequence (SEQ ID NO: 83). All the OR expression plasmids also contain a Kozak sequence (GCCACC) between the BamHI restriction site and the start codon of the signal peptide. These plasmids thus contain a constitutively expressed OR gene.

OR4S2 [2] = molecular target: T2, OR4S2 (Homo sapiens, UniProt Q8NH73, A290K); assay: cell-based; format: cell-based
T2 construct: expressed in transfected cells; host or cells: HEK293T stably expressing human RTP1S(V227I) and RTP2(L220R)
From the text: as §1

OR4S2 [3] = assay: cell-based; format: cell-based, human
From the text: as §1

OR14J1 = molecular target: T3, OR14J1 (Homo sapiens, UniProt Q9UGF5); assay: Activation of modified OR14J1 (SEQ ID NO: 221), library hit and dose-response; format: cell-based; details: SEQ ID 221
T3 construct: expressed in transfected cells; host or cells: HEK293T stably expressing human RTP1S(V227I) and RTP2(L220R) (general method)
Method: Parallel transfection experiments were conducted with all these plasmids (n = 408) and cells expressing the different OR were stimulated with one given ligand at a time, tested at the maximal, clearly non-cytotoxic concentration. In total 26 different ligands were tested on the full library of class II receptors.
Table 16. Ligands tested on the full library of OR and cognate receptors identified for these ligands

OR1C1 [4] = molecular target: T4, OR1C1 (Homo sapiens, UniProt Q15619); assay: cell-based; format: cell-based
T4 construct: expressed in transfected cells; host or cells: HEK293T cells stably expressing human RTP1S (V227I) and RTP2 (L220R)
From the text: as §1
T4 sequence (Q15619 with tags, fused parts or gaps): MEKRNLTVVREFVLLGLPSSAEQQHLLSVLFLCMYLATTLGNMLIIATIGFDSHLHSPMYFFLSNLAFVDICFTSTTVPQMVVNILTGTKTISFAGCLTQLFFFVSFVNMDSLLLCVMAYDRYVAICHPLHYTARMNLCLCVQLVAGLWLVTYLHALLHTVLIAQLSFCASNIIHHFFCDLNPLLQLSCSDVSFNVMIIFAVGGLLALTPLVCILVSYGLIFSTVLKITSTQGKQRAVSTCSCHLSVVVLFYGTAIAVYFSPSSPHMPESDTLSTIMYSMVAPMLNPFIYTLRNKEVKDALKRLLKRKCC

OR1C1 [5] = molecular target: T5, OR1C1 (Homo sapiens, UniProt Q15619); assay: cell-based; format: cell-based; remark: listed apart in the source
T5 construct: expressed in transfected cells; host or cells: HEK293T cells stably expressing human RTP1S (V227I) and RTP2 (L220R)
From the text: as §1
T5 sequence (Q15619 whole entry): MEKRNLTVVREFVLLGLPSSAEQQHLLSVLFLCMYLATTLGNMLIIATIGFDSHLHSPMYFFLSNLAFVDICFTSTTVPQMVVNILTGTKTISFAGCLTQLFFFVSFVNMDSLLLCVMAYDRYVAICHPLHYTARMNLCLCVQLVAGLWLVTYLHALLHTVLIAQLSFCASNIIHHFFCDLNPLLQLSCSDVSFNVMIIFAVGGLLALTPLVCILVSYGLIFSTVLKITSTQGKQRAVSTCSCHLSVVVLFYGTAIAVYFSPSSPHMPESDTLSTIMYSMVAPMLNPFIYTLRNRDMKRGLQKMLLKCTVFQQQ

OR1C1 [6] = assay: cell-based; format: cell-based, human
From the text: as §1

OR56A4 [7] = assay: cell-based; format: cell-based, human
From the text: as §1
(§2) Activation of OR56A4 by acids of different chain length was further tested. […] Replacing the wild-type with the C-terminal sequence of the functional OR51 E1 did reduce activity. However, using the optimized sequence form Examples 1-5 led to a strong signal and much lower detection threshold upon addition of all three acids.

OR56A4 [8] = molecular target: T6, OR56A4 (Homo sapiens, UniProt Q8NGH8, T299N); assay: cell-based; format: cell-based
T6 construct: expressed in transfected cells; host or cells: HEK293T stably expressing human RTP1S(V227I) and RTP2(L220R)
From the text: as §1, §2

OR56A4 [9] = molecular target: T7, OR56A4 (Homo sapiens, UniProt Q8NGH8); assay: cell-based; format: cell-based
T7 construct: expressed in transfected cells; host or cells: HEK293T stably expressing human RTP1S(V227I) and RTP2(L220R)
T7 sequence (Q8NGH8 1-313): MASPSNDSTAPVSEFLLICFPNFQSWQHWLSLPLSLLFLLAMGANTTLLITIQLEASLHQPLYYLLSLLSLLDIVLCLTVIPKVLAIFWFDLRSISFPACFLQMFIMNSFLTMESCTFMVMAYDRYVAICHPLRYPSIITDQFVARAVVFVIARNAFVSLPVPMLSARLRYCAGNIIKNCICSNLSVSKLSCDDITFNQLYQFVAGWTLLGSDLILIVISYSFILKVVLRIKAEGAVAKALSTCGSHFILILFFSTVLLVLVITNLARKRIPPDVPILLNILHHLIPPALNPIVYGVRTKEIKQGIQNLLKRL
From the text: as §1, §2

OR5A1 [10] = molecular target: T8, OR5A1 (Homo sapiens, UniProt Q8NGJ0, I300V); assay: Luciferase dose-response, wild-type vs changed C-terminus (SEQ ID NO: 86); format: cell-based
T8 construct: expressed in transfected cells; host or cells: HEK293T cells stably expressing human RTP1S (V227I) and RTP2 (L220R)

OR5A1 [11] = assay: as above; format: cell-based, human
OR5A1 [12] = molecular target: T9, OR5A1 (Homo sapiens, UniProt Q8NGJ0); assay: as above; format: cell-based
T9 construct: expressed in transfected cells; host or cells: HEK293T cells stably expressing human RTP1S (V227I) and RTP2 (L220R)

OR2T4 = molecular target: T10, OR2T4 (Homo sapiens, UniProt Q8NH00, D328E/G331D/M330K); assay: cell-based; format: cell-based; details: OR2T4 with SEQ ID NO: 86
T10 construct: expressed in transfected cells; host or cells: HEK293T cells stably expressing human RTP1S (V227I) and RTP2 (L220R)
T10 sequence (Q8NH00 with tags, fused parts or gaps D328E/M330K/G331D): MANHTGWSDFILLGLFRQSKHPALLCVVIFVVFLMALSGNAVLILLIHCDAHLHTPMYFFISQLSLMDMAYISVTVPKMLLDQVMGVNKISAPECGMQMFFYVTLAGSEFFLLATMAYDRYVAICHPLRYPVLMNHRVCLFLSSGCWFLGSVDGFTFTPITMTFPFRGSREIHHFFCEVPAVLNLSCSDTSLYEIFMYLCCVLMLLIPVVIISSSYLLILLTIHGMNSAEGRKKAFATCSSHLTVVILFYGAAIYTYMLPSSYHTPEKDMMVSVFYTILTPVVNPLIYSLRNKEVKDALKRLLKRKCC
From the text: as §1

OR2T11 [13] = molecular target: T11, OR2T11 (Homo sapiens, UniProt Q8NH01); assay: cell-based; format: cell-based
T11 construct: expressed in transfected cells; host or cells: HEK293T stably expressing human RTP1S(V227I) and RTP2(L220R)
From the text: as §1
T11 sequence (Q8NH01 with tags, fused parts or gaps): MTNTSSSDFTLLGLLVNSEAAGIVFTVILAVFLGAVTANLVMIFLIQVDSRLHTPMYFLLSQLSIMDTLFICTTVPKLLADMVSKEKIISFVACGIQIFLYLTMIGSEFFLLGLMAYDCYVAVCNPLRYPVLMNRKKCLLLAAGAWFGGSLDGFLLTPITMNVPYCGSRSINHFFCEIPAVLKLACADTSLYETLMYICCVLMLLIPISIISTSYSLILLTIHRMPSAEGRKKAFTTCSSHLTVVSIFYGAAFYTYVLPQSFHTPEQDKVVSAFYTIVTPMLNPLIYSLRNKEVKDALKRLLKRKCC

OR2T11 [14] = molecular target: T12, OR2T11 (Homo sapiens, UniProt Q8NH01); assay: cell-based; format: cell-based; remark: listed apart in the source
T12 construct: expressed in transfected cells; host or cells: HEK293T stably expressing human RTP1S(V227I) and RTP2(L220R)
From the text: as §1
T12 sequence (Q8NH01 whole entry): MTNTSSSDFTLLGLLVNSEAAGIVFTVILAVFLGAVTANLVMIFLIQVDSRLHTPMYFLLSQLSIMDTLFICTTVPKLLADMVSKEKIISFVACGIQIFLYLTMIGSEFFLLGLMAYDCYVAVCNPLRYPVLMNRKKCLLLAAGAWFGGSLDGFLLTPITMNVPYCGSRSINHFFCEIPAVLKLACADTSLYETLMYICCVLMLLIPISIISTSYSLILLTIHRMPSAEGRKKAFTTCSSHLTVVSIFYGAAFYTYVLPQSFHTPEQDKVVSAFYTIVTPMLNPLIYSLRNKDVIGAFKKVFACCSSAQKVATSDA

OR2T11 [15] = assay: cell-based; format: cell-based, human
From the text: as §1

OR5AN1 = molecular target: T13, OR5AN1 (Homo sapiens, UniProt Q8NGI8); assay: Chimeric OR5AN1 with C-terminal sequence of OR1N2 (luciferase); format: cell-based
T13 construct: expressed in transfected cells; host or cells: HEK293T stably expressing human RTP1S(V227I) and RTP2(L220R)
From the text: Similarly, the C-terminal sequence of OR5AN1 was replaced with the C-terminal sequence of the ambrettolide receptor OR1 N2.

[16] = wild-type, read-out: Potency EC50
[17] = changed C-term SEQ ID NO: 86, read-out: Potency EC50

T6 sequence (Q8NGH8 with tags, fused parts or gaps T299N): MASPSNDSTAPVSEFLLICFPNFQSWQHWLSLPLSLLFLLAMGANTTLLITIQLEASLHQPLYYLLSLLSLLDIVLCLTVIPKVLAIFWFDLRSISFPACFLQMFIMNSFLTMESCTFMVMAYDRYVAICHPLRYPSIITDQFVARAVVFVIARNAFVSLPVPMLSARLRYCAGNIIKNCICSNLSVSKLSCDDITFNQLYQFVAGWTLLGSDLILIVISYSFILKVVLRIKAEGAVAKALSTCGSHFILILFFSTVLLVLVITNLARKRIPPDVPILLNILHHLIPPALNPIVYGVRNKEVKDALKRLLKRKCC
T3 sequence (Q9UGF5 with tags, fused parts or gaps): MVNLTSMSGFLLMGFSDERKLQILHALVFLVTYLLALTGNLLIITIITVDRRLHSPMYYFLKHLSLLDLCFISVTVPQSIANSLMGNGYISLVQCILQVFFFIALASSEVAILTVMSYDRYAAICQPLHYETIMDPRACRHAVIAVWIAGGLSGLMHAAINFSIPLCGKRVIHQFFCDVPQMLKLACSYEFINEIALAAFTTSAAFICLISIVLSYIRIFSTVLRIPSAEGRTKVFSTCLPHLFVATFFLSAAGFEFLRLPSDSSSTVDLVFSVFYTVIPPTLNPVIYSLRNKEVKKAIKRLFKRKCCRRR
T8 sequence (Q8NGJ0 with tags, fused parts or gaps I300V): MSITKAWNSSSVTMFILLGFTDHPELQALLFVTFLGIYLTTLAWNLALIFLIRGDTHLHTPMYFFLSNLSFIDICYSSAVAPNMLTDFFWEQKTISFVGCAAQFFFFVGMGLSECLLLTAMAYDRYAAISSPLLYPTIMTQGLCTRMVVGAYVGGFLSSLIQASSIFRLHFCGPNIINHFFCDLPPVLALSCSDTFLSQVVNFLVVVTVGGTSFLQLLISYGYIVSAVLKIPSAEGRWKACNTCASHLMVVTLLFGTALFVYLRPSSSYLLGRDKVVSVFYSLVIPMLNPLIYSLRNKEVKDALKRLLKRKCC
T2 sequence (Q8NH73 with tags, fused parts or gaps A290K): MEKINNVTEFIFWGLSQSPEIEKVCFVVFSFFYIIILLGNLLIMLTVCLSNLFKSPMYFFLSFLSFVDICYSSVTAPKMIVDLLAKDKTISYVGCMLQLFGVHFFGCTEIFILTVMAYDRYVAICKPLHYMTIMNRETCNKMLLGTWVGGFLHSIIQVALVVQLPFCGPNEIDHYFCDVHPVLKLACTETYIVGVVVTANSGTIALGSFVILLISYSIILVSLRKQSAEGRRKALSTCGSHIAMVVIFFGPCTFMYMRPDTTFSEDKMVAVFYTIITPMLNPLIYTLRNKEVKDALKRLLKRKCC
T13 sequence (Q8NGI8 with tags, fused parts or gaps limits assumed): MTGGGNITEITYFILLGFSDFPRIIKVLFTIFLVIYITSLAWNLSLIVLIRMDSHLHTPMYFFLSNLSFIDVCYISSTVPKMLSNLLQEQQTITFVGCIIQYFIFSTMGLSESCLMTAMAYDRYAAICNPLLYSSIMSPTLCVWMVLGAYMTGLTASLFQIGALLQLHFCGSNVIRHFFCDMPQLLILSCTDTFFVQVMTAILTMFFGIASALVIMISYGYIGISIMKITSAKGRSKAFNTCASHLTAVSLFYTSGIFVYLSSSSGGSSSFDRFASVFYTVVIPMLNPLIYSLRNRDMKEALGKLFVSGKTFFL

`c1ccc2scnc2c1` [Benzothiazole] was tested. Which “Detection threshold; concentration for 2-fold induction” value (OR4S2 [1]) did it give?
The value was 29.4 µM.

And the EC50 (OR4S2 [1]; [16])?
Its EC50 is 137 µM.

And the “Detection threshold; concentration for 2-fold induction” value (OR4S2 [2])?
The value was 12.5 µM.

What about the EC50 (OR4S2 [2]; [17]) of the same compound?
Its EC50 is 104 µM.

And the Comments on efficacy (OR4S2 [3])?
Its Comments on efficacy is 2-fold lower maximal induction for wild-type.

And the Fold-improvement potency (OR4S2 [3])?
Its Fold-improvement potency is 1.3.

And the Fold-improvement threshold (OR4S2 [3])?
The Fold-improvement threshold was 2.4.

Which “activation of OR14J1” value (OR14J1) does the source give for `C[C@H]1CCC2(O)C(C)(C)C3CCC2(C)C1C3` (stereo partly drawn) [Patchoulol, (4S)-4,8a,9,9-tetramethyloctahydro-1,6-methanonaphthalen-1(2H)-ol] here?
The value was “activate OR14J1; also recorded: strong induction”.

Which “Detection threshold; concentration for 2-fold induction” value (OR1C1 [4]) does the source give for `C=CC(C)(O)CCC=C(C)C` (stereo not shown) [Linalool] here?
Its value is 16.2 µM.

What about the EC50 (OR1C1 [4]; [17]) of the same compound?
The EC50 was 202 µM.

What about the “Detection threshold; concentration for 2-fold induction” value (OR1C1 [5]) of the same compound?
The value was 34.7 µM.

And the EC50 (OR1C1 [5]; [16])?
The EC50 was 379 µM.

What about the Fold-improvement potency (OR1C1 [6]) of the same compound?
Its Fold-improvement potency is 1.9.

And the Fold-improvement threshold (OR1C1 [6])?
Its Fold-improvement threshold is 2.1.

What does the source list for `CCCCCCCCCCC(=O)O` [Undecanoic acid]?
Fold-improvement potency (OR56A4 [7]): 5.1; Fold-improvement threshold (OR56A4 [7]): 13.5; Detection threshold; concentration for 2-fold induction (OR56A4 [8]): 3.2 µM; EC50 (OR56A4 [8]; [17]): 22 µM; Detection threshold; concentration for 2-fold induction (OR56A4 [9]): 43 µM; activation of wild-type OR56A4 (OR56A4 [9]; wild-type): activated at high concentration; EC50 (OR56A4 [9]; [16]): 114 µM

What does the source list for `CC(=O)/C=C/C1=C(C)CCCC1(C)C` [Beta-ionone]?
EC50 (OR5A1 [10]): 3.1 µM; Detection threshold; concentration for 2-fold induction (OR5A1 [10]; changed C-term. SEQ ID NO: 86): 3.2 µM; Comments on efficacy (OR5A1 [11]): 4-fold lower maximal induction for wild-type; Fold-improvement potency (OR5A1 [11]): 1.8; Fold-improvement threshold (OR5A1 [11]): 5.9; EC50 (OR5A1 [12]): 5.5 µM; Detection threshold; concentration for 2-fold induction (OR5A1 [12]; wild-type): 19.1 µM

With `C=CCSSCC=C` [Diallyl disulfide] as the compound, how does the “ligands identified in screening of sulfur odorants” value (OR2T4) read?
The value was “good ligands”.

What about the EC50 (OR2T11 [13]; Potency EC50, changed C-term SEQ ID NO: 86) of the same compound?
The EC50 was 6.51 µM.

And the “Detection threshold; concentration for 2-fold induction” value (OR2T11 [13]; changed C-term. SEQ ID NO: 86)?
Its value is 2.03 µM.

What about the EC50 (OR2T11 [14]; Potency EC50, wild-type) of the same compound?
The EC50 was over 200 µM.

What about the “Detection threshold; concentration for 2-fold induction” value (OR2T11 [14]; wild-type) of the same compound?
The value was over 200 µM.

What about the Comments on efficacy (OR2T11 [15]) of the same compound?
The Comments on efficacy was “No induction wild-type”.

What about the Fold-improvement potency (OR2T11 [15]) of the same compound?
Its Fold-improvement potency is >>40.

And the Fold-improvement threshold (OR2T11 [15])?
The Fold-improvement threshold was over 100.

Which functional response (OR5AN1) does the source give for `CC(=O)c1c(C)c([N+](=O)[O-])c(C(C)(C)C)c([N+](=O)[O-])c1C` [Musk ketone] here?
The functional response was “not showing any functional response”.
